Measurements taken from US10202371B2, “Oxazolidin-2-one-pyrimidine derivatives and the use thereof as phosphatidylinositol-3-kinase inhibitors” (Novartis AG, priority 2012, dated 2019).
pIC50: −log10 of the molar value. Like-named read-outs stand apart in the source and are kept apart here.

Experiments:
[1] = test system: Detroit562 cells; test: BrdU cell proliferation assay Detroit562; format: cell-based; conditions: Homo sapiens, Detroit 562, BrdU incorporation
Excerpt: The SCL-1 and SCC12B2 are human cutaneous squamous cell carcinoma (SCC) cell lines derived from naturally occurring, poorly differentiated SCCs. The SCL-1 cell line was originally established in the lab of N. Fusenig at the Cancer Research Center in Heidelberg, and its growth characteristics in vitro in comparison to normal keratinocytes were described previously (Neely et al 1991). The SCC12B2 cell line was established as described previously (Rheinwald & Beckett 1981) from the facial skin of a transplant patient who received immunosuppressive therapy for 7 years. The human SCC cell line Detroit562 was obtained from American Tissue Culture Collection (ATCC). Detroit562 is referred to as Head & Neck squamous cell carcinomas (HNSCC) and was derived from a pharyngeal SCC tumor. […]
Cells of SCC or keratinocyte lines (Detroit562, SCC12B2, SCL1, HaCaT) were used for the proliferation assays when they had reached about 80% to 90% confluency. Cells were then harvested after trypsin-mediated dislodgement from culture flasks, washed in culture medium containing 10% FCS, counted in a hemocytometer and diluted complete culture medium with 5% FCS to obtain a cell density of 5×10^4 cells/ml. […] The cell proliferation was determined on the basis of incorporation of bromodesoxy-uridin (BrdU) into cellular DNA using the chemiluminescent BrdU Cell Proliferation ELISA (Roche article #11 669 915 001). […]

[2] = target: human PI3Kα (Homo sapiens (Human), UniProt P42336); test: Biochemical assay PI3Kalpha (KinaseGlo luminescence); conditions: 1 μM ATP
human PI3Kα, sequence (P42336 21-1068): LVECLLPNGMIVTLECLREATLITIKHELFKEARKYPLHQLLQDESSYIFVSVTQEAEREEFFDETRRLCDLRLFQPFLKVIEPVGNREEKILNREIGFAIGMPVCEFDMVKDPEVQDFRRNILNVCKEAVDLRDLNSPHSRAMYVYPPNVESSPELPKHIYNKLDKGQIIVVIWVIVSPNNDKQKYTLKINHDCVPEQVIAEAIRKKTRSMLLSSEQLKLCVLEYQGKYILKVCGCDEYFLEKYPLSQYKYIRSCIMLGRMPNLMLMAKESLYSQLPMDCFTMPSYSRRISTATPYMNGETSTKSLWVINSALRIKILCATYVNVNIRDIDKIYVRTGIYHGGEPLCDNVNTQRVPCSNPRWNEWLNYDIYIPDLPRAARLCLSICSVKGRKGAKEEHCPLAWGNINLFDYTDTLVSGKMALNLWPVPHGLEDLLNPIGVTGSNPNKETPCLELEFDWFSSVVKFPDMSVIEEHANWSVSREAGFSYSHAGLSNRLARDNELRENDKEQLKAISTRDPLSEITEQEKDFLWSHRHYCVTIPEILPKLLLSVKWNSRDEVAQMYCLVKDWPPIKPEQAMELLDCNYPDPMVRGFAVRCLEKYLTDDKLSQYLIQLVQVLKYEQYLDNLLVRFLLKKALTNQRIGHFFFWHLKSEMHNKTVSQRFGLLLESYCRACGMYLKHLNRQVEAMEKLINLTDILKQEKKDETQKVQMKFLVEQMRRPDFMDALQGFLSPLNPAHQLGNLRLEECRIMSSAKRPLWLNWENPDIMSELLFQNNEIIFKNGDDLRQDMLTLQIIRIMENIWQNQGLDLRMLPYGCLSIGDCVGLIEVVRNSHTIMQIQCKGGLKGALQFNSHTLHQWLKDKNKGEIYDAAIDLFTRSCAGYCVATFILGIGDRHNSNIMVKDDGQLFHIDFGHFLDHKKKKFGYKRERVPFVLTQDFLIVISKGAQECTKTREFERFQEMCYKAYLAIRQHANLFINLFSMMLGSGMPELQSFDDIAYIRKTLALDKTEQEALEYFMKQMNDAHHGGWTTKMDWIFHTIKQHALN
Excerpt: Cancer Ther. accepted). […] (L-alpha-phosphatidylinositol (PI), Liver, Bovine) were obtained from Avanti Polar Lipid (Cat. […] (Avanti, Cat. No. 840046X) or L-α-phosphatidylinositol (PI) was obtained from Avanti Polar Lipid (Cat. […] Luminescence is a well established readout to determine ATP concentrations and can thus be used to follow the activity of many kinases regardless of their substrate. The Kinase Glo Luminescent Kinase Assay (Promega, Madison/WI, USA) is a homogeneous HTS method of measuring kinase activity by quantifying the amount of ATP remaining in solution following a kinase reaction. 50 nL of compound dilutions were dispensed onto black 384-well low volume Non Binding Styrene (NBS) plates (Costar Cat. No. […] L-α-phosphatidylinositol (PI), provided as 10 mg/ml solution in methanol, was transferred into a glass tube and dried under nitrogen beam. […] NVP-BGT226 was used as a reference compound and included in all assay plates in the form of 16 dilution points in duplicate. […] All fits were performed with the program XLfit4 (ID Business Solutions, Guildford, UK).

SMILES	pIC50 ([1]; measurement #1, read-out: anti-proliferative IC50 Detroit562 measurement #1)	pIC50 ([1]; measurement #2, read-out: anti-proliferative IC50 Detroit562 measurement #2)	PI3Ka/IC50 [2] [umol I-1]
C[C@H]1[C@H](c2nccs2)OC(=O)N1c1cc(-c2cnc(N)nc2C(F)(F)F)nc(N2CCOCC2)n1 [Example 1, (4S,5R)-3-(2′-Amino-2-morpholin-4-yl-4′-trifluoromethyl-[4,5′]bipyrimidinyl-6-yl)-4-methyl-5-thiazol-2-yl-oxazolidin-2-one]	6.22	6.36	–
Nc1ncc(-c2cc(N3C(=O)O[C@@H](c4ccccc4)[C@@H]3CO)nc(N3CCOCC3)n2)c(C(F)(F)F)n1 [Example 10]	–	–	0.009
